The values that follow come from patent US20040167033A1, “Herbicidal composition” (priority 2001, published 2004).

Molecules are shown by their SMILES.

The test system of this series is maize. The series is described as follows: Pre-emergence test (Example B2), greenhouse pots, phytotoxicity on maize. It counts as in vivo. On the procedure:
The test plants are sown in pots under greenhouse conditions. A standard soil is used as cultivation substrate. At a pre-emergence stage, the herbicides, both on their own and in admixture with safener, are applied to the soil surface or to cultivated plants seed-dressed with safener. The rates of application depend on the optimum doses ascertained under field conditions or greenhouse conditions. The tests are evaluated after from 2 to 4 weeks (100% action=complete destruction, 0% action=no phytotoxic action). The mixtures used in this test show good results.

As to `CCc1cccc(C)c1N(C(=O)CCl)[C@@H](C)COC` [S-metolachlor], the “Phytotoxicity on maize (%) 15 days after application” value by setting is: (Table B2.1, S-metolachlor 1000 g/ha (EC 960), safener of formula II row prints 1000 g/ha) 7%; (Table B2.1, S-metolachlor 2000 g/ha (EC 960), safener of formula II row prints 2000 g/ha) 20%; (Table B2.1, S-metolachlor 4000 g/ha (EC 960), safener of formula II row prints 4000 g/ha) 40%; (Table B2.1, S-metolachlor 6000 g/ha (EC 960), safener of formula II row prints 6000 g/ha, 100%=complete destruction) 53%.
